The record followed here is patent US20200247800A1, “SUBSTITUTED BICYCLIC HETEROCYCLIC COMPOUNDS AS NADPH OXIDASE INHIBITORS” (Glenmark Pharmaceuticals S.A., priority 2017, published 2020).

A word on the inhibition: it is the drop in the measured response relative to a control, in per cent. As usually defined, the IC50 is the concentration needed to halve the response being measured.

The assay deals with T1, human NOX4 (Homo sapiens, UniProt Q9NPH5).
T1 construct: expressed in transfected cells; membrane fraction used
T1 sequence (Q9NPH5 1-578): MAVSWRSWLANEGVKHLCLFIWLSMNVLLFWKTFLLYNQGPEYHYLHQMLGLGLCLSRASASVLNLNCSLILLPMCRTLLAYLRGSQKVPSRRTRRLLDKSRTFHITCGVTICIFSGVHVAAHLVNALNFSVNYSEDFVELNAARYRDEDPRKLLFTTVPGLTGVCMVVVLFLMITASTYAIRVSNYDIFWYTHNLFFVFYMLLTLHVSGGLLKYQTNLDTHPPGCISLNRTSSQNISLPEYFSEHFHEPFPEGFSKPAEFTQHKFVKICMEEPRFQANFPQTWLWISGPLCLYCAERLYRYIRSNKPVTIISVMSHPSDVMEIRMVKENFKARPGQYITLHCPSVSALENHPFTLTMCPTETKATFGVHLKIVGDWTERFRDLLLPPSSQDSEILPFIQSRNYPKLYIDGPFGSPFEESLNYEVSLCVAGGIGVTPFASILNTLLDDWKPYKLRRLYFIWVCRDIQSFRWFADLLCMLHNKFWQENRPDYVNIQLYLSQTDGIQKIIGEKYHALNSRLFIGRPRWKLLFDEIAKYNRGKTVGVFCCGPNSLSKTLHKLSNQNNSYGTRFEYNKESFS
T1 sequence (P13498 1-195 partner): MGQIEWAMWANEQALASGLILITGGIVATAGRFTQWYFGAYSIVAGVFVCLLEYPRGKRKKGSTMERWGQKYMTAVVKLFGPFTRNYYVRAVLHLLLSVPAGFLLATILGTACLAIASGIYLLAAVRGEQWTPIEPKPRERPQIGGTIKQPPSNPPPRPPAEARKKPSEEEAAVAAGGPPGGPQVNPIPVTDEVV
Briefly: Cell free membrane based in vitro NOX4 assay: H2O2 production by membranes expressing human NOX4, measured with Amplex Red. It is filed as biochemical. Particulars: for inhibition at 1 µM: read-out: Percentage inhibition at 1.0 μM; for inhibition at 10 µM: read-out: Percentage inhibition at 10.0 μM; for IC50: class symbols. A digest of the protocol:
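Membranes from HEK cells stably overexpressing human NOX4 were preincubated 20 min with inhibitor in pH 7.4 HEPES buffer containing HRP and Amplex Red, then NADPH was added. H2O2 was followed for 10 min by fluorescence (ex 544/em 590 nm). IC50 from nonlinear regression of % maximal uninhibited response.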

Consider `CCc1nn(CC2CCOCC2)c2[nH]c(-c3ccccc3Cl)c(O)c(=O)c12` [Example 208, 6-(2-Chlorophenyl)-3-ethyl-5-hydroxy-1-((tetrahydro-2H-pyran-4-yl)methyl)-1H-pyrazolo[3,4-b]pyridin-4(7H)-one], for which the IC50 was in the range of 100 to 150 nM. Moreover, the inhibition at 1 µM (1.0 μM compound) amounted to 82.5%. For the same molecule, the inhibition at 10 µM (10.0 μM compound) was found to be 71.6%.
`Cn1nc(CC2CCOCC2)c2c(=O)c(O)c(-c3c(F)cccc3F)[nH]c21` [Example 209, 6-(2,6-Difluorophenyl)-5-hydroxy-1-methyl-3-((tetrahydro-2H-pyran-4-yl)methyl)-1H-pyrazolo[3,4-b]pyridin-4(7H)-one] had an IC50 of 50 to 100 nM. Where the note is “1.0 μM compound”, the inhibition at 1 µM turned out to be 89.5%. In addition, the inhibition at 10 µM (10.0 μM compound) was determined as 89.8%.
Taken in the same sequence, the figures for `CCc1nn(CCN2CCC(F)(F)CC2)c2[nH]c(-c3ccccc3Cl)c(O)c(=O)c12` [Example 210, 6-(2-Chlorophenyl)-1-(2-(4,4-difluoropiperidin-1-yl)ethyl)-3-ethyl-5-hydroxy-1H-pyrazolo[3,4-b]pyridin-4(7H)-one] were over 150 nM, 91% and 86.3%.
The molecule `CCc1nn(CCC2CCOCC2)c2[nH]c(-c3c(F)cccc3F)c(O)c(=O)c12` [Example 211] returned an IC50 of 50 to 100 nM. Besides, for the setting “1.0 μM compound”, the inhibition at 1 µM stood at 92.4%. Also, under “10.0 μM compound”, the inhibition at 10 µM was 93.7%.
Consider `CCc1nn(CCC2CCOCC2)c2[nH]c(-c3ccccc3Cl)c(O)c(=O)c12` [Example 212, 6-(2-Chlorophenyl)-3-ethyl-5-hydroxy-1-(2-(tetrahydro-2H-pyran-4-yl)ethyl)-1H-pyrazolo[3,4-b]pyridin-4(7H)-one], for which the concentration for half-maximal inhibition (IC50) is over 150 nM. In addition, the inhibition at 1 µM (1.0 μM compound) is 81.5%. Besides, the inhibition at 10 µM (10.0 μM compound) stood at 71.7%.
`CCc1nn(CCC2CCOCC2)c2[nH]c(-c3cccc(C(F)(F)F)c3F)c(O)c(=O)c12` [Example 213, 3-Ethyl-6-(2-fluoro-3-(trifluoromethyl)phenyl)-5-hydroxy-1-(2-(tetrahydro-2H-pyran-4-yl)ethyl)-1H-pyrazolo[3,4-b]pyridin-4(7H)-one] yielded an IC50 of over 150 nM. For the same molecule, where the note is “1.0 μM compound”, the inhibition at 1 µM was determined as 86.9%. Also, the inhibition at 10 µM (10.0 μM compound) amounted to 75.6%.
Taken in the same sequence, the figures for `CC(C)CN1CCN(Cc2nn(C)c3[nH]c(-c4c(F)cccc4F)c(O)c(=O)c23)CC1` [Example 214, 6-(2,6-Difluorophenyl)-5-hydroxy-3-((4-isobutylpiperazin-1-yl)methyl)-1-methyl-1H-pyrazolo[3,4-b]pyridin-4(7H)-one] were over 150 nM, 81.8% and 85%.
The molecule `O=c1c(O)c(-c2c(F)cccc2F)[nH]c2c1c(CO)nn2CC1CCOCC1` [Example 215, 6-(2,6-difluorophenyl)-5-hydroxy-3-(hydroxymethyl)-1-((tetrahydro-2H-pyran-4-yl)methyl)-1H-pyrazolo[3,4-b]pyridin-4(7H)-one] registered an IC50 of 100 to 150 nM. Also, the inhibition at 1 µM (1.0 μM compound) came to 78.8%. Moreover, the inhibition at 10 µM (10.0 μM compound) amounted to 87.3%.
In turn, `Cn1nc(CN2CCN(C3CC3)CC2)c2c(=O)c(O)c(-c3c(F)cccc3F)[nH]c21` [Example 216, 3-((4-Cyclopropylpiperazin-1-yl)methyl)-6-(2,6-difluorophenyl)-5-hydroxy-1-methyl-1H-pyrazolo[3,4-b]pyridin-4(7H)-one] registered an IC50 of over 150 nM. In addition, the inhibition at 1 µM (1.0 μM compound) was 73.4%. The inhibition at 10 µM (10.0 μM compound) is 88.3%.
`O=c1c(O)c(-c2c(F)cccc2F)[nH]c2c1c(CO)nn2CCC1CCOCC1` [Example 217, 6-(2,6-difluorophenyl)-5-hydroxy-3-(hydroxymethyl)-1-(2-(tetrahydro-2H-pyran-4-yl)ethyl)-1H-pyrazolo[3,4-b]pyridin-4(7H)-one] displayed an IC50 of 100 to 150 nM. The inhibition at 1 µM (1.0 μM compound) came out at 83.8%. For the same molecule, under “10.0 μM compound”, the inhibition at 10 µM turned out to be 89.7%.
For `CCc1nn(CCS(C)(=O)=O)c2[nH]c(-c3c(F)cccc3F)c(O)c(=O)c12` [Example 218, 6-(2,6-Difluorophenyl)-3-ethyl-5-hydroxy-1-(2-(methylsulfonyl)ethyl)-1H-pyrazolo[3,4-b]pyridin-4(7H)-one], the IC50 fell in the range of 50 to 100 nM. The inhibition at 1 µM (1.0 μM compound) is 85.5%. Also, the inhibition at 10 µM (10.0 μM compound) was determined as 90.1%.
Molecule `Cn1nc(CN2CCN(C3COC3)CC2)c2c(=O)c(O)c(-c3c(F)cccc3F)[nH]c21` [Example 219, 6-(2,6-Difluorophenyl)-5-hydroxy-1-methyl-3-((4-(oxetan-3-yl)piperazin-1-yl)methyl)-1H-pyrazolo[3,4-b]pyridin-4(7H)-one] registered an IC50 of over 150 nM. The inhibition at 1 µM (1.0 μM compound) stood at 81.7%. For the same molecule, the inhibition at 10 µM (10.0 μM compound) was 89.2%.
In turn, `Cn1nc(CN2CCN(CC(F)(F)F)CC2)c2c(=O)c(O)c(-c3c(F)cccc3F)[nH]c21` [Example 220, 6-(2,6-Difluorophenyl)-5-hydroxy-1-methyl-3-((4-(2,2,2-trifluoroethyl)piperazin-1-yl)methyl)-1H-pyrazolo[3,4-b]pyridin-4(7H)-one] displayed an IC50 of over 150 nM. Moreover, the “Percentage inhibition at 1.0 μM” value (1.0 μM compound, 1 µM) is reported as 87.57%. Also, the “Percentage inhibition at 10.0 μM” value (10.0 μM compound) is given as 100.00%.
Regarding `Cn1nc(CN2CCN(CCF)CC2)c2c(=O)c(O)c(-c3c(F)cccc3F)[nH]c21` [Example 221, 6-(2,6-Difluorophenyl)-3-((4-(2-fluoroethyl)piperazin-1-yl)methyl)-5-hydroxy-1-methyl-1H-pyrazolo[3,4-b]pyridin-4(7H)-one], the IC50 was over 150 nM. Under “1.0 μM compound”, the inhibition at 1 µM is 84%. The inhibition at 10 µM (10.0 μM compound) came out at 97.1%.
In the case of `CC(C)N1CCN(Cc2nn(C)c3[nH]c(-c4c(F)cccc4F)c(O)c(=O)c23)C[C@@H]1C` [Example 222, (S)-6-(2,6-Difluorophenyl)-5-hydroxy-3-((4-isopropyl-3-methylpiperazin-1-yl)methyl)-1-methyl-1H-pyrazolo[3,4-b]pyridin-4(7H)-one], the concentration for half-maximal inhibition (IC50) was over 150 nM. The inhibition at 1 µM (1.0 μM compound) is 86.2%. For the setting “10.0 μM compound”, the inhibition at 10 µM is 92.7%.
Take `CC(C)N1CCN(Cc2nn(C)c3[nH]c(-c4c(F)cccc4F)c(O)c(=O)c23)C[C@H]1C` [Example 223, (R)-6-(2,6-Difluorophenyl)-5-hydroxy-3-((4-isopropyl-3-methylpiperazin-1-yl)methyl)-1-methyl-1H-pyrazolo[3,4-b]pyridin-4(7H)-one]: the half-inhibitory concentration (IC50) lay in the range of 100 to 150 nM. Further, the inhibition at 1 µM (1.0 μM compound) is 89.7%. The inhibition at 10 µM (10.0 μM compound) came to 96.6%.
For `Cn1nc(C(F)(F)F)c2c(=O)c(O)c(-c3ccc(O)cc3)[nH]c21` [Example 225, 5-hydroxy-6-(4-hydroxyphenyl)-1-methyl-3-(trifluoromethyl)-1,7-dihydro-4H-pyrazolo[3,4-b]pyridin-4-one] the same measures were over 150 nM, 80.1% and 90.7%.
As for `CC(=O)Oc1c(-c2c(F)cccc2F)[nH]c2c(c(C)nn2C)c1=O` [Example 226], the inhibition at 1 µM (1.0 μM compound) worked out at 22.9%. The inhibition at 10 µM (10.0 μM compound) amounted to 66.9%.
On to `Cc1c2oc(-c3ccccc3Cl)c(O)c(=O)c2nn1C` [Example 227, 5-(2-chlorophenyl)-6-hydroxy-2,3-dimethylpyrano[3,2-c]pyrazol-7(2H)-one], for which the inhibition at 1 µM (1.0 μM compound) worked out at 6.03%. For the same molecule, the inhibition at 10 µM (10.0 μM compound) stood at 16%.
As to `Cc1c2oc(-c3ccccc3Cl)c(O)c(=O)c2nn1C(C)C` [Example 228, 5-(2-Chlorophenyl)-6-hydroxy-3-methyl-2-(propan-2-yl)pyrano[3,2-c]pyrazol-7(2H)-one], where the note is “1.0 μM compound”, the inhibition at 1 µM turned out to be 8.66%. For the same molecule, the inhibition at 10 µM (10.0 μM compound) was found to be 11%.
Taken in the same sequence, the figures for `CCn1nc2c(=O)c(O)c(-c3ccccc3Cl)oc2c1C` [Example 229, 5-(2-Chlorophenyl)-2-ethyl-6-hydroxy-3-methylpyrano[3,2-c]pyrazol-7(2H)-one] were 4.45% and 5.81%.
In the case of `Cc1nn(C)c2oc(-c3ccccc3Cl)c(O)c(=O)c12` [Example 230, 6-(2-chlorophenyl)-5-hydroxy-1,3-dimethylpyrano[2,3-c]pyrazol-4(1H)-one], the inhibition at 1 µM (1.0 μM compound) came to 3.28%. Further, the inhibition at 10 µM (10.0 μM compound) worked out at 5.83%.
On to `Cc1nn(-c2ccc(F)cc2)c2oc(-c3ccccc3Cl)c(O)c(=O)c12` [Example 231, 6-(2-Chlorophenyl)-1-(4-fluorophenyl)-5-hydroxy-3-methylpyrano[2,3-c]pyrazol-4(1H)-one], for which, under “1.0 μM compound”, the inhibition at 1 µM is 12.5%. Also, the inhibition at 10 µM (10.0 μM compound) worked out at 9.39%.
Regarding `Cc1nn(CCCO)c2[nH]c(-c3c(F)cccc3F)c(O)c(=O)c12` [Example 232, 6-(2,6-Difluorophenyl)-5-hydroxy-1-(3-hydroxypropyl)-3-methyl-1H-pyrazolo[3,4-b]pyridin-4(7H)-one], the IC50 was in the range of 50 to 100 nM. For the same molecule, the inhibition at 1 µM (1.0 μM compound) is 85.1%. In addition, under “10.0 μM compound”, the inhibition at 10 µM turned out to be 84.8%.
